Like-named read-outs stand apart in the source and are kept apart here.
Legend:
Assay type in all cases: cell-based
[1] = target: T1, hNaV1.7 (Homo sapiens, UniProt Q15858); assay: Whole-cell patch-clamp inhibition of hNaV1.7 in HEK 293 cells; details: 100 nM toxin, approximate
T1 construct: expressed in transfected cells; host or cells: HEK 293 cells, transient transfection

[2] = target: T2, hNaV1.5 (Homo sapiens, UniProt Q14524); assay: Whole-cell patch-clamp inhibition of hNaV1.5 in HEK 293 cells
T2 construct: expressed in transfected cells; host or cells: HEK 293 cells, transient transfection
T2 sequence (Q14524 whole entry): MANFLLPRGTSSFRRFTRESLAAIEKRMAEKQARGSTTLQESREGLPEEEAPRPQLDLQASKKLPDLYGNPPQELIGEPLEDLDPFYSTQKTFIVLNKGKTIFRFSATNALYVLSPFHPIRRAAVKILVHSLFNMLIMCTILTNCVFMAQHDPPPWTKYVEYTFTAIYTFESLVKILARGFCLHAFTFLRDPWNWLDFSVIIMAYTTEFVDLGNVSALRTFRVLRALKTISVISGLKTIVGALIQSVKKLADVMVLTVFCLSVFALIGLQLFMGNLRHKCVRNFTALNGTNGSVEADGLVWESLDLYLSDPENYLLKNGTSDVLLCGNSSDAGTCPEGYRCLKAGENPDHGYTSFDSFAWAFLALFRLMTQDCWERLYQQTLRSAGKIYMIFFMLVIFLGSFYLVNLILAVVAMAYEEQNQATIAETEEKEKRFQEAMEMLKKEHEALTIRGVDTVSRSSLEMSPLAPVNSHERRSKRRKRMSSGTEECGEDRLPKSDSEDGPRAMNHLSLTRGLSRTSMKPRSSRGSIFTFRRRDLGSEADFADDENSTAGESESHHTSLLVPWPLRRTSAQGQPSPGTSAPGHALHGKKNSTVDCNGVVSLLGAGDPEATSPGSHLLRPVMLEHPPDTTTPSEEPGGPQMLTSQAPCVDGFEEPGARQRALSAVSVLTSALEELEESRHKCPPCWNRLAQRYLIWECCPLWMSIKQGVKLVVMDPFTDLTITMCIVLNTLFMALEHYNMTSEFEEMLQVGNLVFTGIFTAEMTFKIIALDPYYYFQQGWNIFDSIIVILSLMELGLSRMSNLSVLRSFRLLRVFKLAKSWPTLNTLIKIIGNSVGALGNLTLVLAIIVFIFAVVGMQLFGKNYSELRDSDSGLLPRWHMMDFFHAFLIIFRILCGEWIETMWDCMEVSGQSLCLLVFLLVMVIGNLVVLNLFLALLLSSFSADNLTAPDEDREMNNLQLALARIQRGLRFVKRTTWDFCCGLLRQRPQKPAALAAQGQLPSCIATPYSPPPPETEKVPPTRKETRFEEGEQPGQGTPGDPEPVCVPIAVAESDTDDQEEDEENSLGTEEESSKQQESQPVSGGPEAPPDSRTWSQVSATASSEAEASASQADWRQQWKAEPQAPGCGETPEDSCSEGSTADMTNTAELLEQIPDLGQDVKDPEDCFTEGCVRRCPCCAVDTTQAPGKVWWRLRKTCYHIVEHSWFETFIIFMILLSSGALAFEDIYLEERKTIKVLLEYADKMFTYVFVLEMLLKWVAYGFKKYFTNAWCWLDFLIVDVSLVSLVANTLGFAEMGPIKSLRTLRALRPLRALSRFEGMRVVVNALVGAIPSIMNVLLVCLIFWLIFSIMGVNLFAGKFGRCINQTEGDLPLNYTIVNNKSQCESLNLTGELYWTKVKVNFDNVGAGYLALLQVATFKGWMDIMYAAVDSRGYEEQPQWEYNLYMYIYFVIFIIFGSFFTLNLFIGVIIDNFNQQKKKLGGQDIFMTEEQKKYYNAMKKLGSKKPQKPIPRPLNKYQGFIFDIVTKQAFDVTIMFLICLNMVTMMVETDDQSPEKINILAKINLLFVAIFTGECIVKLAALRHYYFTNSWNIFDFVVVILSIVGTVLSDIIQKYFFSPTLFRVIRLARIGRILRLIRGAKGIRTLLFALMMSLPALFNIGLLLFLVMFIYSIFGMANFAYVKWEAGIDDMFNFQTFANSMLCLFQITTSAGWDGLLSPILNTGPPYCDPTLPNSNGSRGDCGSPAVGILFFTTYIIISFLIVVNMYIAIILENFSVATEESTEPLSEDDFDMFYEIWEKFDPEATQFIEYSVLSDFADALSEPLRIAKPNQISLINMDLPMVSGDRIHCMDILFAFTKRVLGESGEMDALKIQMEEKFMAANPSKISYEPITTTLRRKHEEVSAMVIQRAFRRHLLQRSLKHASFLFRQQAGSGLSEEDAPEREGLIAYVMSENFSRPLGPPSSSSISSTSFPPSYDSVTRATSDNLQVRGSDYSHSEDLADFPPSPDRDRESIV
Text: (§1) Using whole-cell voltage clamp recording techniques, currents were elicited by a 50-ms depolarizing potential of −10 mV from a holding potential of −100 mV every 5 s. […] The time constants for these inhibitions were 34.01 ± 6.81 and 34.24 ± 8.13 s, respectively (Figure 1a,d). […] Dose-response curves for NaV1 subtypes tested are summarized in Figure 1e and consist of at least three data points for each concentration.
All the voltage gated sodium channels subtypes (hNaV1.3, rNaV1.4, hNaV1.5 and hNaV1.7), along with β1 subunit to increase the current density and green fluorescent protein to serve as the report protein, were individually transiently transfected into HEK 293 cells using the lipofectamine 2000 (Invitrogen, Carlsbad, CA, USA) according to its manufacturer’s instructions. […] At 36–72 h after transfection, cells with green fluorescence were selected for whole-cell patch-clamp recording at room temperature. […]
Sodium currents were recorded on experimental cells using whole-cell patch-clamp techniques at room temperature (20–25 °C). […] Experimental data were acquired and analyzed using the programs Clampfit 10.0 (Axon Instruments, Irvine, CA, USA) and Sigmaplot 90 (Sigma, St. Louis, MO, USA). […]
Data were analyzed using the Clampfit (Molecular Devices, Irvine, CA, USA) and Sigmaplot 10.0 (Sigma, St. Louis, MO, USA) software programs. […]

[3] = target: T3, hNaV1.3 (Homo sapiens, UniProt Q9NY46); assay: Whole-cell patch-clamp inhibition of hNaV1.3 in HEK 293 cells; details: 100 nM toxin, approximate
T3 construct: expressed in transfected cells; host or cells: HEK 293 cells, transient transfection

[4] = target: T4, rNaV1.4 (Rattus norvegicus, UniProt P15390); assay: Whole-cell patch-clamp inhibition of rNaV1.4 in HEK 293 cells; details: HEK 293 cells with β1 subunit, 50-ms depolarization to −10 mV from −100 mV every 5 s, Hill fit, mean ± S.E., room temperature
T4 construct: expressed in transfected cells; host or cells: HEK 293 cells, transient transfection
T4 sequence (P15390 whole entry): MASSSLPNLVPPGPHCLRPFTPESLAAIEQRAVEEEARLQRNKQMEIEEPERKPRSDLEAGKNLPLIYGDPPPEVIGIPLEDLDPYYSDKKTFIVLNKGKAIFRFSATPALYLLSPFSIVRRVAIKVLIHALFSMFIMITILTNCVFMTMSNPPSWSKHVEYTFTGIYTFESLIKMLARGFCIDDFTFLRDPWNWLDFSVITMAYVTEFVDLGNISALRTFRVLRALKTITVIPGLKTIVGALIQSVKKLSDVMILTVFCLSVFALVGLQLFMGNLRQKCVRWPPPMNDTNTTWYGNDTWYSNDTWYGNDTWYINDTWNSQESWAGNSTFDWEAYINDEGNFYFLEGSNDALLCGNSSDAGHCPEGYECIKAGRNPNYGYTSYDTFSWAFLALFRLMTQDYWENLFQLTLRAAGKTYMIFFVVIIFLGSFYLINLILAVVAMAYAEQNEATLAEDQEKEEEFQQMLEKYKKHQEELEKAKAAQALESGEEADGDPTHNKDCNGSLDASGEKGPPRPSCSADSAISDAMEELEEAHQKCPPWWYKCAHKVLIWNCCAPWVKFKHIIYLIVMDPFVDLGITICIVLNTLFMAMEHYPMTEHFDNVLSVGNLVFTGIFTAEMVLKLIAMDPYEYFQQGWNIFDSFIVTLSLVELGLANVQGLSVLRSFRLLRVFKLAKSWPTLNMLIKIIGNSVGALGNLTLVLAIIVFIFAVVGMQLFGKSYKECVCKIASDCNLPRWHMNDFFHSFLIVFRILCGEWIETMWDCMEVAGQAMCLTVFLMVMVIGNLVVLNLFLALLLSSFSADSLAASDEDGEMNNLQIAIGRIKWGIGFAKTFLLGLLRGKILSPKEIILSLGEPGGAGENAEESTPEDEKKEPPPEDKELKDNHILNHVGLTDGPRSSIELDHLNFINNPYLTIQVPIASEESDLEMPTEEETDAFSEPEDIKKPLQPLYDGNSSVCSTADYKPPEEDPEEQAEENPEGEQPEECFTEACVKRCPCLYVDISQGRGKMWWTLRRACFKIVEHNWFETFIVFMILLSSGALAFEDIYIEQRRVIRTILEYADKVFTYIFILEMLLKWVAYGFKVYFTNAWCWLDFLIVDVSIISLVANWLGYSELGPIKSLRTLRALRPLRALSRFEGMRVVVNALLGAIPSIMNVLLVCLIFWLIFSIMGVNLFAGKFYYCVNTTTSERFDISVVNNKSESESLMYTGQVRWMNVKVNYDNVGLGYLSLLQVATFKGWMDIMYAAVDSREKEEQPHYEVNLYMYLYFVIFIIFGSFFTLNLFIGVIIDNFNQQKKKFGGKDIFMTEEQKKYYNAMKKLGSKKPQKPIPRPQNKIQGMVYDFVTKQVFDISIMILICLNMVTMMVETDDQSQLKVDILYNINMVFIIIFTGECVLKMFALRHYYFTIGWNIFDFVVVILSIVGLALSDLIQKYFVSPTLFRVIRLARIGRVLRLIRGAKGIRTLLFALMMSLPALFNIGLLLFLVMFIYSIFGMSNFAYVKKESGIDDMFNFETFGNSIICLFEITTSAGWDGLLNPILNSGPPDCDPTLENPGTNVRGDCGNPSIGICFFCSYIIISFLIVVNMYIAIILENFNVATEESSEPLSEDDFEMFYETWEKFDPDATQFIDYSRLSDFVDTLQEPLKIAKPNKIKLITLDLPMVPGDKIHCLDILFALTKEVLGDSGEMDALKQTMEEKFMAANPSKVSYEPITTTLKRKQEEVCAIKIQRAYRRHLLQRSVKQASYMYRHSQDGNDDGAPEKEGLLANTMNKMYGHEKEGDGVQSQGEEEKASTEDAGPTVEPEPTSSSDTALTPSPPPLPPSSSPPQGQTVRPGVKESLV
T4 sequence (Q07699 19-218, further chain): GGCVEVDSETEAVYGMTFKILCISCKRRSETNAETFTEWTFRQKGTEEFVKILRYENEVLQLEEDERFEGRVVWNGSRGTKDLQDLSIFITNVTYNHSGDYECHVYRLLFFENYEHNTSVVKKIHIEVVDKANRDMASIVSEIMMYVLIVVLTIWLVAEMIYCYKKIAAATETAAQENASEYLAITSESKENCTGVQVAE
Text: as §1
After purification, we characterized the interaction of each mutant toxin with NaV1.4. Under whole-cell patch clamp configuration, rNaV1.4 current was elicited by a 50-ms depolarizing potential of −10 mV from a holding potential of −100 mV every 5 s.
All the voltage gated sodium channels subtypes (hNaV1.3, rNaV1.4, hNaV1.5 and hNaV1.7), along with β1 subunit to increase the current density and green fluorescent protein to serve as the report protein, were individually transiently transfected into HEK 293 cells using the lipofectamine 2000 (Invitrogen, Carlsbad, CA, USA) according to its manufacturer’s instructions. HEK293 cells were cultured under standard cell culture condition (5% CO2; 37 °C) in DMEM supplemented with 10% FBS. At 36–72 h after transfection, cells with green fluorescence were selected for whole-cell patch-clamp recording at room temperature. The pipette solution contained (in mM): 140 CsF, 10 NaCl, 10 HEPES and 1 EGFA, pH7.3. The bathing solution contained (in mM): 140 NaCl, 10 HEPES, 3 KCl, 1 MgCl2 and 1 CaCl2, pH7.3.
Sodium currents were recorded on experimental cells using whole-cell patch-clamp techniques at room temperature (20–25 °C). Patch pipettes with DC resistance of 2~3 MΩ were fabricated from borosilicate glass tubing (VWR micropipettes; VWR Co., West Chester, PA, USA) using a two-stage vertical microelectrode puller (PC-10; Narishige, Tokyo, Japan) and fire-polished by a heater (Narishige, Tokyo, Japan). Whole-cell patch-clamp recordings were performed by an Axon 700B patch-clamp amplifier (Axon Instruments, Irvine, CA, USA). The P/4 protocol was used to subtract linear capacitive and leakage currents. Experimental data were acquired and analyzed using the programs Clampfit 10.0 (Axon Instruments, Irvine, CA, USA) and Sigmaplot 90 (Sigma, St. Louis, MO, USA).
Before use, the solution was diluted to the concentration of interest with fresh bathing solution. Toxin was introduced into the recording chamber (volume of 300 μL) and mixed by repeatedly pipetting 30 μL to achieve the demanded final concentration. The mixing process typically took ~5 s.
Data were analyzed using the Clampfit (Molecular Devices, Irvine, CA, USA) and Sigmaplot 10.0 (Sigma, St. Louis, MO, USA) software programs. All data points are shown as mean ± S.E. n is the number of the separated experimental cells. […] The Hill coefficient was set to 1 except where indicated. The box plots were generated at http://boxplot.tyerslab.com. In the box plots, center lines show the medians; box limits indicate the 25th and 75th percentiles as determined by R software; whiskers extend 1.5 times the interquartile range from the 25th and 75th percentiles, outliers are represented by dots. Time courses were fitted by using single exponential decay function.

[5] = read-out: IC50 on rNaV1.4 (alanine mutants)

SMILES | IC50 [4, 5] | further results
CC[C@H](C)[C@H](NC(=O)[C@@H](NC(=O)[C@H](CCCCN)NC(=O)[C@H](CCCNC(=N)N)NC(=O)[C@@H]1CSSC[C@@H]2NC(=O)[C@H](C)NC(=O)[C@H](CCCNC(=N)N)NC(=O)[C@H](CCCCN)NC(=O)[C@H](CO)NC(=O)[C@H](CC(=O)O)NC(=O)[C@@H]3CSSC[C@H](NC(=O)[C@H](CCCNC(=N)N)NC(=O)[C@H](CC(C)C)NC(=O)CNC(=O)[C@H](CCC(=O)O)NC(=O)[C@H](CSSC[C@H](NC(=O)[C@@H](N)Cc4ccc(O)cc4)C(=O)N[C@@H](CCC(N)=O)C(=O)N[C@@H](CCCCN)C(=O)N[C@@H](Cc4c[nH]c5ccccc45)C(=O)N[C@@H](CCSC)C(=O)N[C@@H](Cc4c[nH]c5ccccc45)C(=O)N[C@@H]([C@@H](C)O)C(=O)N3)NC2=O)C(=O)N[C@@H](CCCCN)C(=O)N[C@@H](CC(C)C)C(=O)N[C@@H](Cc2c[nH]c3ccccc23)C(=O)N1)[C@@H](C)CC)C(N)=O [JZTX-V] | – | inhibition of hNaV1.7 inward current (Figure 1b) [1]: approximately 45%; decrease of hNaV1.5 activation (peak current) ([2]; 500 nM toxin, n = 8, −10 mV from −100 mV): 43% ± 6.5%; IC50 ([2]; HEK 293 cells with β1 subunit, 50-ms depolarization to −10 mV from −100 mV every 5 s, Hill fit, mean ± S.E., three to six cells, room temperature): 2.7 ± 0.779 µM; inhibition of hNaV1.3 inward current (Figure 1c) [3]: ~35%; IC50 ([4]; three to six cells, read-out: IC50 on rNaV1.4): 0.00512 ± 0.00087 µM
CC[C@H](C)[C@H](NC(=O)[C@@H](NC(=O)[C@H](CCCCN)NC(=O)[C@H](CCCNC(=N)N)NC(=O)[C@@H]1CSSC[C@@H]2NC(=O)[C@H](C)NC(=O)[C@H](CCCNC(=N)N)NC(=O)[C@H](CCCCN)NC(=O)[C@H](CO)NC(=O)[C@H](CC(=O)O)NC(=O)[C@@H]3CSSC[C@H](NC(=O)[C@H](CCCNC(=N)N)NC(=O)[C@H](CC(C)C)NC(=O)CNC(=O)[C@H](CCC(=O)O)NC(=O)[C@H](CSSC[C@H](NC(=O)[C@@H](N)Cc4ccc(O)cc4)C(=O)N[C@@H](CCC(N)=O)C(=O)N[C@@H](CCCCN)C(=O)N[C@@H](Cc4c[nH]c5ccccc45)C(=O)N[C@@H](CCSC)C(=O)N[C@@H](Cc4c[nH]c5ccccc45)C(=O)N[C@@H]([C@@H](C)O)C(=O)N3)NC2=O)C(=O)N[C@@H](C)C(=O)N[C@@H](CC(C)C)C(=O)N[C@@H](Cc2c[nH]c3ccccc23)C(=O)N1)[C@@H](C)CC)C(N)=O [K22A] | 0.659 ± 0.011 µM | –
CC[C@H](C)[C@H](NC(=O)[C@@H](NC(=O)[C@H](CCCCN)NC(=O)[C@H](CCCNC(=N)N)NC(=O)[C@@H]1CSSC[C@@H]2NC(=O)[C@H](C)NC(=O)[C@H](CCCNC(=N)N)NC(=O)[C@H](CCCCN)NC(=O)[C@H](CO)NC(=O)[C@H](CC(=O)O)NC(=O)[C@@H]3CSSC[C@H](NC(=O)[C@H](CCCNC(=N)N)NC(=O)[C@H](CC(C)C)NC(=O)CNC(=O)[C@H](CCC(=O)O)NC(=O)[C@H](CSSC[C@H](NC(=O)[C@@H](N)Cc4ccc(O)cc4)C(=O)N[C@@H](CCC(N)=O)C(=O)N[C@@H](CCCCN)C(=O)N[C@@H](Cc4c[nH]c5ccccc45)C(=O)N[C@@H](C)C(=O)N[C@@H](Cc4c[nH]c5ccccc45)C(=O)N[C@@H]([C@@H](C)O)C(=O)N3)NC2=O)C(=O)N[C@@H](CCCCN)C(=O)N[C@@H](CC(C)C)C(=O)N[C@@H](Cc2c[nH]c3ccccc23)C(=O)N1)[C@@H](C)CC)C(N)=O [M6A] | 0.252 ± 0.45 µM | –
CC[C@H](C)[C@H](NC(=O)[C@@H](NC(=O)[C@H](CCCCN)NC(=O)[C@H](CCCNC(=N)N)NC(=O)[C@@H]1CSSC[C@@H]2NC(=O)[C@H](C)NC(=O)[C@H](CCCNC(=N)N)NC(=O)[C@H](CCCCN)NC(=O)[C@H](CO)NC(=O)[C@H](CC(=O)O)NC(=O)[C@@H]3CSSC[C@H](NC(=O)[C@H](C)NC(=O)[C@H](CC(C)C)NC(=O)CNC(=O)[C@H](CCC(=O)O)NC(=O)[C@H](CSSC[C@H](NC(=O)[C@@H](N)Cc4ccc(O)cc4)C(=O)N[C@@H](CCC(N)=O)C(=O)N[C@@H](CCCCN)C(=O)N[C@@H](Cc4c[nH]c5ccccc45)C(=O)N[C@@H](CCSC)C(=O)N[C@@H](Cc4c[nH]c5ccccc45)C(=O)N[C@@H]([C@@H](C)O)C(=O)N3)NC2=O)C(=O)N[C@@H](CCCCN)C(=O)N[C@@H](CC(C)C)C(=O)N[C@@H](Cc2c[nH]c3ccccc23)C(=O)N1)[C@@H](C)CC)C(N)=O [R20A] | 2.1 ± 0.28 µM | –
CC[C@H](C)[C@H](NC(=O)[C@@H](NC(=O)[C@H](CCCCN)NC(=O)[C@H](CCCNC(=N)N)NC(=O)[C@@H]1CSSC[C@@H]2NC(=O)[C@H](C)NC(=O)[C@H](CCCNC(=N)N)NC(=O)[C@H](CCCCN)NC(=O)[C@H](CO)NC(=O)[C@H](CC(=O)O)NC(=O)[C@@H]3CSSC[C@H](NC(=O)[C@H](CCCNC(=N)N)NC(=O)[C@H](CC(C)C)NC(=O)CNC(=O)[C@H](CCC(=O)O)NC(=O)[C@H](CSSC[C@H](NC(=O)[C@@H](N)Cc4ccc(O)cc4)C(=O)N[C@@H](CCC(N)=O)C(=O)N[C@@H](CCCCN)C(=O)N[C@@H](C)C(=O)N[C@@H](CCSC)C(=O)N[C@@H](Cc4c[nH]c5ccccc45)C(=O)N[C@@H]([C@@H](C)O)C(=O)N3)NC2=O)C(=O)N[C@@H](CCCCN)C(=O)N[C@@H](CC(C)C)C(=O)N[C@@H](Cc2c[nH]c3ccccc23)C(=O)N1)[C@@H](C)CC)C(N)=O [W5A] | 0.313 ± 0.26 µM | –
CC[C@H](C)[C@H](NC(=O)[C@@H](NC(=O)[C@H](CCCCN)NC(=O)[C@H](CCCNC(=N)N)NC(=O)[C@@H]1CSSC[C@@H]2NC(=O)[C@H](C)NC(=O)[C@H](CCCNC(=N)N)NC(=O)[C@H](CCCCN)NC(=O)[C@H](CO)NC(=O)[C@H](CC(=O)O)NC(=O)[C@@H]3CSSC[C@H](NC(=O)[C@H](CCCNC(=N)N)NC(=O)[C@H](CC(C)C)NC(=O)CNC(=O)[C@H](CCC(=O)O)NC(=O)[C@H](CSSC[C@H](NC(=O)[C@@H](N)Cc4ccc(O)cc4)C(=O)N[C@@H](CCC(N)=O)C(=O)N[C@@H](CCCCN)C(=O)N[C@@H](Cc4c[nH]c5ccccc45)C(=O)N[C@@H](CCSC)C(=O)N[C@@H](C)C(=O)N[C@@H]([C@@H](C)O)C(=O)N3)NC2=O)C(=O)N[C@@H](CCCCN)C(=O)N[C@@H](CC(C)C)C(=O)N[C@@H](Cc2c[nH]c3ccccc23)C(=O)N1)[C@@H](C)CC)C(N)=O [W7A] | 1.92 ± 0.31 µM | –
